Measured values as given in patent US20140213513A1 (Sanofi, priority 2012, published 2014).
*1 amine or outer side, *2 acyl side, *3 side chain or, on linkers, in order; H or OH if unused. Where a SMILES comes first, the peptide text is derived from it. Side-chain parts run from the residue outwards. [ ]: non-standard residue; d: D form. The star is where a group is joined. γGlu = O=C(O)[C@H](CCC(=O)[*:2])N[*:1]; Palmitoyl = CCCCCCCCCCCCCCCC(=O)*; Aib = CC(C)(N)C(=O)O

What was measured:
[1] = target: T1, human glucagon receptor (hGLUC R) (Homo sapiens, UniProt P47871); assay: cAMP response of HEK-293 cells stably expressing human glucagon receptor (HTRF); assay type: cell-based; conditions: Table 7; cAMP formation
T1 construct: expressed in transfected cells
T1 sequence (P47871 26-477): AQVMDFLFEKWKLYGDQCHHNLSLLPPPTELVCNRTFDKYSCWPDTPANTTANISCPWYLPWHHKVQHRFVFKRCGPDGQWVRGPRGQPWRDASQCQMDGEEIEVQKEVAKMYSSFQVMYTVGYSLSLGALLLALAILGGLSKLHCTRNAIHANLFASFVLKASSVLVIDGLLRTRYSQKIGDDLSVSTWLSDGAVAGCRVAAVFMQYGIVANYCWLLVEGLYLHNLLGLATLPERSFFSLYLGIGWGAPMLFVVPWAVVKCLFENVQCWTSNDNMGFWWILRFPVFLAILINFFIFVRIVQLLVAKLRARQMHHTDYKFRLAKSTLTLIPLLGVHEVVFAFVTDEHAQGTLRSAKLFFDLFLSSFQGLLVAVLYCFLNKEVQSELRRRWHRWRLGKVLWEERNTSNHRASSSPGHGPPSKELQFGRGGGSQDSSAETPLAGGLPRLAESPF
Description: (§1) cAMP content of cells was determined using a kit from Cisbio Corp. (cat. no. 62AM4PEC) based on HTRF (Homogenous Time Resolved Fluorescence). For preparation, cells were split into T175 culture flasks and grown overnight to near confluency in medium (DMEM/10% FBS). Medium was then removed and cells washed with PBS lacking calcium and magnesium, followed by proteinase treatment with accutase (Sigma-Aldrich cat. no. A6964). Detached cells were washed and resuspended in assay buffer (1×HBSS; 20 mM HEPES, 0.1% BSA, 2 mM IBMX) and cellular density determined. They were then diluted to 400000 cells/ml and 25 μl-aliquots dispensed into the wells of 96-well plates. For measurement, 25 μl of test compound in assay buffer was added to the wells, followed by incubation for 30 minutes at room temperature.

[2] = target: T2, human GLP-1 receptor (hGLP-1 R) (Homo sapiens, UniProt P43220); assay: cAMP response of HEK-293 cells stably expressing human GLP-1 receptor (HTRF); assay type: cell-based; conditions: Table 7; cAMP formation
T2 construct: expressed in transfected cells
T2 sequence (P43220 24-463): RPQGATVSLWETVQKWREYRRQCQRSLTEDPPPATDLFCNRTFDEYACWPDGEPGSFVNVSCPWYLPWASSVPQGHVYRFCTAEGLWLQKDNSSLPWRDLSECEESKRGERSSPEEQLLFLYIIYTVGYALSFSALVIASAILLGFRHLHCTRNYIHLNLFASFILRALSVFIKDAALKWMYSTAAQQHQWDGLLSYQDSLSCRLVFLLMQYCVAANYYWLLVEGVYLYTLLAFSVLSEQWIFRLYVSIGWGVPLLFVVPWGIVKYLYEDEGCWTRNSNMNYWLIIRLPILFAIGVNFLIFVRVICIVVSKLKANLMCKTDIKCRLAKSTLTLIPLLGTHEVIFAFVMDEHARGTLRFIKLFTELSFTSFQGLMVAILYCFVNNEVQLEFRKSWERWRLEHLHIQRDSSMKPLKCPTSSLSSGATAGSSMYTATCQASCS
Description: as §1

| SMILES | EC50 [1] [nM] | EC50 [2] [nM] |
| --- | --- | --- |
| CCCCCCCCCCCCCCCC(=O)N[C@@H](CCC(=O)NCCCC[C@H](NC(=O)[C@H](CCC(N)=O)NC(=O)[C@@H](NC(=O)[C@H](CO)NC(=O)[C@H](CC(C)C)NC(=O)[C@H](CC(=O)O)NC(=O)[C@H](CO)NC(=O)[C@@H](NC(=O)[C@H](Cc1ccccc1)NC(=O)[C@@H](NC(=O)CNC(=O)[C@H](CCC(=O)O)NC(=O)C(C)(C)NC(=O)[C@@H](N)Cc1ccc(O)cc1)[C@@H](C)O)[C@@H](C)O)[C@@H](C)CC)C(=O)N[C@@H](CC(=O)O)C(=O)N[C@@H](CCCCN)C(=O)N[C@@H](CCCNC(=N)N)C(=O)N[C@@H](CCCCN)C(=O)N[C@@H](C)C(=O)N[C@@H](CCC(N)=O)C(=O)N[C@@H](CC(=O)O)C(=O)N[C@@H](Cc1ccccc1)C(=O)N[C@H](C(=O)N[C@@H](CCC(=O)O)C(=O)N[C@@H](Cc1c[nH]c2ccccc12)C(=O)N[C@@H](CC(C)C)C(=O)N[C@@H](CCCCN)C(=O)N[C@@H](CC(N)=O)C(=O)NCC(=O)NCC(=O)N1CCC[C@H]1C(=O)N[C@@H](CO)C(=O)N[C@@H](CO)C(=O)NCC(=O)N[C@@H](C)C(=O)N1CCC[C@H]1C(=O)N1CCC[C@H]1C(=O)N1CCC[C@H]1C(=O)N[C@@H](CO)C(N)=O)[C@@H](C)CC)C(=O)O [SEQ ID NO: 54, Y-Aib-E-G-T-F-T-S-D-L-S-I-Q-K(yE-x53)-DKRKAQDFIEWLKNGGPSSGAPPPS-NH2] (H-Y[Aib]EGTFTSDLSIQK([γGlu-Palmitoyl])DKRKAQDFIEWLKNGGPSSGAPPPS-NH2) | 2.62 | 0.0668 |
| CCCCCCCCCCCCCCCC(=O)N[C@@H](CCC(=O)NCCCC[C@H](NC(=O)[C@H](CCC(N)=O)NC(=O)[C@@H](NC(=O)[C@H](CO)NC(=O)[C@H](CC(C)C)NC(=O)[C@H](CC(=O)O)NC(=O)[C@H](CO)NC(=O)[C@@H](NC(=O)[C@H](Cc1ccccc1)NC(=O)[C@@H](NC(=O)CNC(=O)[C@H](CCC(N)=O)NC(=O)C(C)(C)NC(=O)[C@@H](N)Cc1ccc(O)cc1)[C@@H](C)O)[C@@H](C)O)[C@@H](C)CC)C(=O)N[C@@H](CC(=O)O)C(=O)N[C@@H](CCCCN)C(=O)N[C@@H](CCCNC(=N)N)C(=O)N[C@@H](C)C(=O)N[C@H](C(=O)N[C@@H](CCC(N)=O)C(=O)N[C@@H](CC(C)C)C(=O)N[C@@H](Cc1ccccc1)C(=O)N[C@H](C(=O)N[C@@H](CCC(=O)O)C(=O)N[C@@H](Cc1c[nH]c2ccccc12)C(=O)N[C@@H](CC(C)C)C(=O)N[C@@H](CCCCN)C(=O)N[C@@H](CC(N)=O)C(=O)NCC(=O)NCC(=O)N1CCC[C@H]1C(=O)N[C@@H](CO)C(=O)N[C@@H](CO)C(=O)NCC(=O)N[C@@H](C)C(=O)N1CCC[C@H]1C(=O)N1CCC[C@H]1C(=O)N1CCC[C@H]1C(=O)N[C@@H](CO)C(N)=O)[C@@H](C)CC)C(C)C)C(=O)O [SEQ ID NO: 47, Y-Aib-Q-G-T-F-T-S-D-L-S-I-Q-K(yE-x53)-DKRAVQLFIEWLKNGGPSSGAPPPS-NH2] (H-Y[Aib]QGTFTSDLSIQK([γGlu-Palmitoyl])DKRAVQLFIEWLKNGGPSSGAPPPS-NH2) | 2.39 | 0.0156 |
